This is an account of results in US4520026A, “Indolizine derivatives and use as cardiovascular agents” (S. A. Labaz N.V., priority 1982, dated 1985).

Data set [1] deals with blood-flow to the myocardium. The data set can be described thus: Effect on blood-flow to the myocardium, anaesthetized dogs, intravenous. The data set is classed as in vivo, dog. The protocol: It was undertaken on anaesthetized dogs which received the substance under study by intravenous route. The intensity of the maximum effect on blood-flow to the myocardium was expressed in percentage of the corresponding value before injection. The time required for the maximum effect to decrease by 50% represented the duration of the effect. This time was measured in minutes.

In data set [2] the test system is epinephrine-increased blood-pressure (anti-α effect). Description: Antiadrenergic effect: anti-α effect (reduction of epinephrine-increased blood-pressure). In kind it is in vivo. As to conditions: dog; for inhibition in vivo at 10 mg/kg: Canis lupus familiaris, iv. The protocol:
(§1) The purpose of this test was to determine the capacity of the compounds under study to reduce epinephrine-increased blood-pressure (anti-α effect) and epinephrine-accelerated heart rate (anti-β effect) in the dog previously anaesthetized with pentobarbital and atropinized.
(§2) For each dog, the dose of epinephrine was first determined which provoked a reproductible increase by about 100 mm. Hg in the arterial pressure (between 5 and 10 μg/kg). After that, the dose of epinephrine so determined was administered followed by a dose by intravenous route of the compound to be studied. The percentage of reduction of the hypertension provoked by the compound under study in comparison with the hypertension previously obtained (about 100 mm. Hg) was then registered.
(§3) The percentage of reduction of the epinephrine-induced acceleration of heart-rate produced by the compound under study in comparison with the tachycardia previously measured (about 70 beats) was then registered. In both cases, the results were expressed as follows: […]
(§4) + for a <50%-reduction of the increase in pressure or cardiac frequency
(§5) ++ for a ≥50%-reduction of the increase in pressure or cardiac frequency
(§6) +++ for a subtotal reduction of the increase in pressure or cardiac frequency

In data set [3] the test system is epinephrine-accelerated heart rate (anti-β effect). The data set can be described thus: Antiadrenergic effect: anti-β effect (reduction of epinephrine-accelerated heart rate). The data set is classed as in vivo. Conditions: dog. How it is done: as §1, §2, §3, §4, §5, §6
The nature of data set [4]: Acute toxicity by intravenous route to rats. The data set is classed as in vivo. As to conditions: rat, in vivo, oxalate acid form except those marked (hydrochloride). The protocol:
Acute toxicity tests were carried out on rats and mice. The following results were registered in comparison with butoprozine. The compounds of the invention were used in oxalate acid form except those marked (x) which were tested in hydrochloride form.

Setting [5] is: Canis lupus familiaris, iv, dose 10 mg/kg i.v., anaesthetized dog, read-out: Max. increase (blood-flow to the myocardium).
[6] abbreviates: dose 10 mg/kg i.v., anaesthetized dog.
Where [7] appears, read: Canis lupus familiaris, iv, dose 10 mg/kg i.v.
The mark [8] stands for this setting: Canis lupus familiaris, iv, dose 5 mg/kg i.v., anaesthetized dog, read-out: Max. increase (blood-flow to the myocardium).
[9] abbreviates: dose 5 mg/kg i.v., anaesthetized dog.

As usually defined, the inhibition in vivo is the relative decrease from the control value, in per cent. Read a low inhibition in vivo as little suppression. With `CCCCc1oc2ccccc2c1C(=O)c1cc(I)c(OCCN(CC)CC)c(I)c1` [Amiodarone, reference compound], the change in vivo at 10 mg/kg in data set [1] (setting [5]) came out at 36%. Also, the “Coronarodilating effect / blood-flow to the myocardium, in words” value in data set [1] (comparative) is “cannot be regarded as a coronarodilator”. Also, the “Time required to decrease to 50% (duration of effect)” value in data set [1] (setting [6]) is 7 min. Besides, the inhibition in vivo at 10 mg/kg in data set [2] (dose 10 mg/kg i.v.) and in data set [3] (setting [7]) was above 50% each time.
In the case of `CCCCN(CCCC)CCCOc1ccc(C(=O)c2c(CC)c(Br)c3ccccn23)cc1Br` [Br/Br/H/C2H5/n-C4H9/3, 1-Bromo-2-ethyl-3-[4-(3-di-n-butylaminopropyl)-oxy-3-bromo-benzoyl]-indolizine], the change in vivo at 10 mg/kg in data set [1] (setting [5]) came out at 60%. Also, in data set [1] (setting [6]), the “Time required to decrease to 50% (duration of effect)” value is 90 min. The Anti-α effect result in data set [2] (dose 10 mg/kg i.v.) is given as “+++”. In addition, in data set [3] (dose 10 mg/kg i.v.), the Anti-β effect result is on record as “+++”.
The LD50 is the dose expected to kill half of the subjects tested. Low values mean a more toxic substance, high ones a less toxic substance. As to `CCCCN(CCCC)CCCOc1c(Cl)cc(C(=O)c2c(C(C)C)cc3ccccn23)cc1Cl` [H/Cl/Cl/iso-C3H7/n-C4H9/3, 2-Isopropyl-3-[4-(3-di-n-butylaminopropyl)-oxy-3,5-dichloro-benzoyl]-indolizine], the change in vivo at 10 mg/kg in data set [1] (setting [5]) is 30%. Besides, the “Time required to decrease to 50% (duration of effect)” value in data set [1] (setting [6]) was determined as 75 min. This molecule displayed an LD50 in data set [4] above 100 mg/kg. In addition, the inhibition in vivo at 10 mg/kg in data set [2] (dose 10 mg/kg i.v.) and in data set [3] (setting [7]) was above 50% throughout.
As for `CCCCN(CCCC)CCCOc1ccc(C(=O)c2c(-c3ccccc3)c(Br)c3ccccn23)cc1Cl` [Br/Cl/H/drawing 17/n-C4H9/3], in data set [1] (setting [5]), the change in vivo at 10 mg/kg was 90%. Besides, the “Time required to decrease to 50% (duration of effect)” value in data set [1] (setting [6]) stood at 90 min.
`CCCCN(CCCC)CCCOc1c(Cl)cc(C(=O)c2c(-c3ccc(Br)cc3)cc3ccccn23)cc1Cl` [H/Cl/Cl/drawing 14/n-C4H9/3]: the change in vivo at 10 mg/kg in data set [1] (setting [5]) was 45%. In data set [1] (setting [6]), the “Time required to decrease to 50% (duration of effect)” value worked out at 15 min.
As for `CCCN(CCC)CCCOc1ccc(C(=O)c2c(-c3cccc(Br)c3)cc3ccccn23)cc1Cl` [H/Cl/H/drawing 16/n-C3H7/3], the change in vivo at 8 mg/kg in data set [1] (Canis lupus familiaris, iv, dose 8 mg/kg i.v., anaesthetized dog, read-out: Max. increase (blood-flow to the myocardium)) was found to be 45%. For the same molecule, the “Time required to decrease to 50% (duration of effect)” value in data set [1] (dose 8 mg/kg i.v., anaesthetized dog) amounted to 25 min.
Regarding `CCCN(CCC)CCCOc1ccc(C(=O)c2c(CC)c(Cl)c3ccccn23)cc1Cl` [Cl/Cl/H/C2H5/n-C3H7/3, 1-Chloro-2-ethyl-3-[4-(3-di-n-propylaminopropyl)-oxy-3-chloro-benzoyl]-indolizine], in data set [1] (Canis lupus familiaris, iv, dose 3.3 mg/kg i.v., anaesthetized dog, read-out: Max. increase (blood-flow to the myocardium)), the change in vivo at 3.3 mg/kg amounted to 60%. In addition, the “Time required to decrease to 50% (duration of effect)” value in data set [1] (dose 3.3 mg/kg i.v., anaesthetized dog) was 25 min. For the same molecule, in data set [2] (dose 3.3 mg/kg i.v.), the Anti-α effect result is “+++”. For the same molecule, in data set [3] (dose 3.3 mg/kg i.v.), the Anti-β effect entry was “+++”.
With `CCCN(CCC)CCCOc1ccc(C(=O)c2c(-c3ccc(Cl)cc3)c(Cl)c3ccccn23)cc1` [Cl/H/H/drawing 22/n-C3H7/3], in data set [1] (setting [8]), the change in vivo at 5 mg/kg amounted to 50%. Further, the “Time required to decrease to 50% (duration of effect)” value in data set [1] (setting [9]) worked out at 40 min.
As to `CCCN(CCC)CCCOc1ccc(C(=O)c2c(-c3ccc(Br)cc3)c(Br)c3ccccn23)cc1Cl` [Br/Cl/H/drawing 18/n-C3H7/3], the change in vivo at 10 mg/kg in data set [1] (setting [5]) stood at 50%. In data set [1] (setting [6]), the “Time required to decrease to 50% (duration of effect)” value was found to be 50 min.
As for `CCCCN(CCCC)CCCOc1ccc(C(=O)c2c(CCC)cc3ccccn23)cc1Br` [H/Br/H/n-C3H7/n-C4H9/3, 2-n-Propyl-3-[4-(3-di-n-butylaminopropyl)-oxy-3-bromo-benzoyl]-indolizine], the change in vivo at 2 mg/kg in data set [1] (Canis lupus familiaris, iv, dose 2 mg/kg i.v., anaesthetized dog, read-out: Max. increase (blood-flow to the myocardium)) is 120%. For the same molecule, the “Time required to decrease to 50% (duration of effect)” value in data set [1] (dose 2 mg/kg i.v., anaesthetized dog) came to 25 min.
`CCCCN(CCCC)CCCOc1ccc(C(=O)c2c(CCC)c(Br)c3ccccn23)cc1Cl` [Br/Cl/H/n-C3H7/n-C4H9/3, 1-Bromo-2-n-propyl-3-[4-(3-di-n-butylaminopropyl)-oxy-3-chloro-benzoyl]-indolizine]: the change in vivo at 2.5 mg/kg in data set [1] (Canis lupus familiaris, iv, dose 2.5 mg/kg i.v., anaesthetized dog, read-out: Max. increase (blood-flow to the myocardium)) is 50%. Moreover, the “Time required to decrease to 50% (duration of effect)” value in data set [1] (dose 2.5 mg/kg i.v., anaesthetized dog) is 60 min. For the same molecule, the Anti-α effect entry in data set [2] (dose 10 mg/kg i.v.) is recorded as “+++”. In addition, the Anti-β effect result in data set [3] (dose 10 mg/kg i.v.) is listed as “+++”.
For `CCCCN(CCCC)CCCOc1ccc(C(=O)c2c(C(C)C)c(Br)c3ccccn23)cc1Cl` [Br/Cl/H/iso-C3H7/n-C4H9/3, 1-Bromo-2-isopropyl-3-[4-(3-di-n-butylaminopropyl)-oxy-3-chloro-benzoyl]-indolizine], in data set [1] (setting [8]), the change in vivo at 5 mg/kg amounted to 133%. The “Time required to decrease to 50% (duration of effect)” value in data set [1] (setting [9]) is 20 min.
For `CCCCN(CCCC)CCCOc1ccc(C(=O)c2c(CC)cc3ccccn23)cc1Cl` [H/Cl/H/C2H5/n-C4H9/3, 2-Ethyl-3-[4-(3-di-n-butylaminopropyl)-oxy-3-chloro-benzoyl]-indolizine], the change in vivo at 6 mg/kg in data set [1] (Canis lupus familiaris, iv, dose 6 mg/kg i.v., anaesthetized dog, read-out: Max. increase (blood-flow to the myocardium)) came out at 70%. For the same molecule, in data set [1] (dose 6 mg/kg i.v., anaesthetized dog), the “Time required to decrease to 50% (duration of effect)” value is 45 min. Further, the Anti-α effect entry in data set [2] (dose 6 mg/kg i.v.) is recorded as “+++”. In data set [3] (Canis lupus familiaris, iv, dose 6 mg/kg i.v.), the inhibition in vivo at 6 mg/kg is above 50%.
With `CCCCN(CCCC)CCCOc1ccc(C(=O)c2c(-c3ccccc3)c(Br)c3ccccn23)cc1Cl.Cl` [(*)Br/Cl/H/drawing 49/n-C4H9/3, 1-Bromo-2-phenyl-3-[4-(3-di-n-butylaminopropyl)-oxy-3-chloro-benzoyl]-indolizine hydrochloride], in data set [4], the LD50 is above 100 mg/kg.
As for `CCCN(CCC)CCCOc1ccc(C(=O)c2c(C(C)C)cc3ccccn23)cc1Cl` [H/Cl/H/iso-C3H7/n-C3H7/3, 2-Isopropyl-3-[4-(3-di-n-propylaminopropyl)-oxy-3-chloro-benzoyl]-indolizine], the change in vivo at 5 mg/kg in data set [1] (setting [8]) is 80%. In addition, the “Time required to decrease to 50% (duration of effect)” value in data set [1] (setting [9]) came out at 90 min. The inhibition in vivo at 10 mg/kg in data set [2] (dose 10 mg/kg i.v.) and in data set [3] (setting [7]) was above 50% throughout.
Turning to `CCCCN(CCCC)CCCOc1ccc(C(=O)c2c(-c3cccc(Br)c3)cc3ccccn23)cc1Cl` [H/Cl/H/drawing 15/n-C4H9/3], in data set [1] (setting [5]), the change in vivo at 10 mg/kg was 30%. Also, the “Time required to decrease to 50% (duration of effect)” value in data set [1] (setting [6]) is 45 min.
For `CCCCc1cc2ccccn2c1C(=O)c1ccc(OCCCN(CCCC)CCCC)c(Cl)c1` [H/Cl/H/n-C4H9/n-C4H9/3, 2-n-Butyl-3-[4-(3-di-n-butylaminopropyl)-oxy-3-chloro-benzoyl]-indolizine], the change in vivo at 5 mg/kg in data set [1] (setting [8]) amounted to 75%. Moreover, in data set [1] (setting [9]), the “Time required to decrease to 50% (duration of effect)” value was determined as 30 min. Further, the Anti-α effect entry in data set [2] (dose 10 mg/kg i.v.) is recorded as “+++”. In data set [3] (setting [7]), this molecule came in with an inhibition in vivo at 10 mg/kg above 50%.
The molecule `CCCCN(CCCC)CCCOc1ccc(C(=O)c2c(CC)cc3ccccn23)cc1Cl.Cl` [(*)H/Cl/H/C2H5/n-C4H9/3, 2-Ethyl-3-[4-(3-di-n-butylaminopropyl)-oxy-3-chloro-benzoyl]-indolizine hydrochloride] showed an LD50 in data set [4] of 65 mg/kg.
For `CCCN(CCC)CCCOc1ccc(C(=O)c2c(-c3ccc(Cl)cc3)c(Br)c3ccccn23)cc1Cl` [Br/Cl/H/drawing 19/n-C3H7/3], in data set [1] (setting [5]), the change in vivo at 10 mg/kg worked out at 63%. For the same molecule, the “Time required to decrease to 50% (duration of effect)” value in data set [1] (setting [6]) was 45 min.
Taken in the same sequence, the figures for `CCCc1c(Br)c2ccccn2c1C(=O)c1ccc(OCCCN(CCC)CCC)c(Br)c1` [Br/Br/H/n-C3H7/n-C3H7/3, 1-Bromo-2-n-propyl-3-[4-(3-di-n-propylaminopropyl)-oxy-3-bromo-benzoyl]-indolizine] were 90% and 20 min.
Taken in the same sequence, the figures for `CCCCc1c(Br)c2ccccn2c1C(=O)c1ccc(OCCCN(CCC)CCC)c(Br)c1` [Br/Br/H/n-C4H9/n-C3H7/3, 1-Bromo-2-n-butyl-3-[4-(3-di-n-propylaminopropyl)-oxy-3-bromo-benzoyl]-indolizine] were 100% and 20 min.
For `CCCCc1c(Br)c2ccccn2c1C(=O)c1ccc(OCCCN(CCC)CCC)c(Cl)c1` [Br/Cl/H/n-C4H9/n-C3H7/3, 1-Bromo-2-n-butyl-3-[4-(3-di-n-propylaminopropyl)-oxy-3-chloro-benzoyl]-indolizine], the change in vivo at 10 mg/kg in data set [1] (setting [5]) was 40%. Besides, the “Time required to decrease to 50% (duration of effect)” value in data set [1] (setting [6]) came out at 90 min. The inhibition in vivo at 10 mg/kg in data set [2] (dose 10 mg/kg i.v.) was above 50%; in data set [3] (setting [7]), below 50%.
